{
  "source": "paper PMC2999418",
  "about": "“Biological Activity and Binding Site Characteristics of the PA1b Entomotoxin on Insects from Different Orders” (Journal of Insect Science, 2007)",
  "key": {"Harmonia axyridis": {"tested_on": "Harmonia axyridis", "experiment": "Ladybeetle development and survival on artificial diet supplemented with toxin", "assay_type": "in vivo", "conditions": "250 µg/g of food", "protocol": "The ladybeetle Harmonia axyridis (Coleoptera) was grown on a pork liver-based artificial diet (Specty et al., unpublished results), and tests were performed using a diet supplemented with the toxin. The development was monitored from L3 up to the pupal stage.\n(§1) All toxicity assays were carried out using a mixture of PA1b isoforms (98% purity by HPLC). All tests were performed on at least 30 insects for assays and for control test (without toxin), except for the three aphid species (50 insects) and for Trichogramma (more than 300 eggs by assays). When adults were used, the insects were synchronized at the imaginal molt. The statistical analyses were performed using the JMP software (SAS, Grégy-sur-Yerres FRA).\nFigure 1. Effects of PA1b on the lady beetle H. axyridis. Tests were done with artificial diet supplemented with the toxin (250 µg/g), and the development of the insects was monitored daily. First bar, control insects; second bar, tested insects. P, Pupae; pP, Pre-pupae; L4,4th instar larvae; L3, 3rd instar larvae."}, "[1]": {"molecular_target": "PA1b binding protein on membrane extracts", "conditions": "ref Gressent et al (2003), cited from earlier work", "from_the_text": "Table 1. Affinity (Kd) and relative abundance (Bmax) of the PA1b binding protein on membrane extracts from different insect species and strains. | column: Kd (nM); Bmax (pmol/mg of protein) || Data obtained from competition experiments, using the purified […] isoform as competitor, are shown in Table 1. PA1b binding activity was present in all insect species, except for the resistant weevil strains and the pea specific pest Bruchus pisorum, regardless of the sensitivity or insensitivity of these insects to PA1b toxicity, as evaluated from our insect bioassays. […] The relative abundance of the binding sites was also slight ..."}, "Sitophilus oryzae": {"tested_on": "Sitophilus oryzae", "experiment": "Toxicity assay on cereal weevil adults, toxin in food, survival analysis", "assay_type": "in vivo", "conditions": "dose-response, PA1b isoform mixture in food, confidence interval in brackets", "protocol": "(§2) Cereal weevils (Sitophilus oryzae, S. zeamais and S. granarius, Coleoptera) were reared for more than 10 years in our laboratory on wheat seeds at […] 70% RH. Resistant strains were reared on pea seeds. Tests and survival analysis were performed on adults, as fully described in Louis et al ([2004]).\nas §1"}, "Sitophilus granarius": {"tested_on": "Sitophilus granarius", "experiment": "Toxicity assay on cereal weevil adults, toxin in food, survival analysis", "assay_type": "in vivo", "conditions": "S. granarius Brayard strain", "protocol": "as §2, §1"}, "Sitophilus zeamais": {"tested_on": "Sitophilus zeamais", "experiment": "Toxicity assay on cereal weevil adults, toxin in food, survival analysis", "assay_type": "in vivo", "conditions": "S. zeamais LS strain, day 7, confidence interval in brackets", "protocol": "as §2, §1"}},
  "note": "pKd: −log10 of the molar value.",
  "data": [
    {"sequence": "ASCNGVCSPFEMPPCGTSACRCIPVGLVIGYCR NPSG (bicyclic or more) [PA1b, plant peptide of 37 amino acids purified from pea (Pisum sativum) seeds; entomotoxic cystine-knot peptide with three disulfide bonds]", "values": [
      {"measurement": "share of survivors that reached the pupal stage", "setting": "Harmonia axyridis; by day 12", "value": "half"},
      {"measurement": "insects that reached the L4 stage", "setting": "Harmonia axyridis; started on L3 larvae, after three days (all control insects reached L4)", "value": 30, "unit": "%"},
      {"measurement": "survival", "setting": "Harmonia axyridis; started on L3 larvae, by day 12 (control 75%)", "value": 15, "unit": "%"},
      {"measurement": "Kd / binding", "setting": "[1]; S. oryzae resistant strains Mex1, GV, China, ISOR3, membrane extracts", "value": "no binding detectable"},
      {"measurement": "pKd", "setting": "[1]; S. oryzae strains WAA42, Benin, Bouriz, membrane extracts", "value": "8.35 to 8.70"},
      {"measurement": "LD50 at day 7", "setting": "Sitophilus oryzae; S. oryzae strain Bouriz, adults", "value": "501 [281–984] µg/g"},
      {"measurement": "LD50 at day 7", "setting": "Sitophilus oryzae; S. oryzae strain Bénin, adults", "value": "446 [251–1584] µg/g"},
      {"measurement": "LD50 at day 7", "setting": "Sitophilus oryzae; S. oryzae strain WAA42, adults", "value": "489 [290–1318] µg/g"},
      {"measurement": "mortality", "setting": "Sitophilus granarius; highest tested dose 1000 µg/g", "value": 27, "unit": "%"},
      {"measurement": "LD50 estimated by extrapolation", "setting": "Sitophilus granarius; extrapolated, without confidence interval", "value": "ca. 3500 µg/g"},
      {"measurement": "LC50", "setting": "Sitophilus zeamais", "value": "234 [125–630] µg/g"}
    ]}
  ]
}
